{"source": "patent US9272047B2", "about": "“Use of biological surfactant as anti-inflammatory agent and tissue preservative solution” (Shaperon Inc., priority 2007, dated 2016)", "tested_on": "dendritic cells", "assay": "Inhibition of LPS-induced nitric oxide generation, dendritic cells (Griess)", "type": "cell-based, mouse", "settings": "dendritic cells stimulated by LPS, 18 hours", "procedure": "Then, the resulting dendritic cell mixtures were plated, by […] each, in a 96-well plate. Griss reagents were added to each well, and the 96-well plate was covered with foils and kept reacting for 15 min at room temperature. Absorbance at 540 nm was measured using an ELISA reader. Macrophages separated from abdomen were also treated with sodium glycocholate, sodium taurochenodeoxycholate and sodium taurodeoxycholate, respectively, and then stimulated with LPS for 18 hours. Thereafter, the same experiments as the dentritic cells were performed to the macrophages."}
{"smiles": "C[C@H](CCC(=O)NCC(=O)[O-])[C@H]1CC[C@H]2[C@@H]3[C@H](O)C[C@@H]4C[C@H](O)CC[C@]4(C)[C@H]3C[C@H](O)[C@]12C.[Na+]", "note": "[sodium glycocholate]", "values": [{"measurement": "generation of NO", "value": "inhibited"}]}
